{"source": "patent US8420605B2", "about": "“Hydrogel compositions” (The University of Strathclyde, priority 2005, dated 2013)", "key": {"[1]": {"assay": "Preparation of self-assembled peptide hydrogels by pH adjustment (gel formation)", "assay_type": "physicochemical", "experimental": "Fmoc peptides (from BACHEM Ltd) were weighed out into 4 ml glass vials. 2 ml purified water was added followed by sonication for 30-60 seconds. 0.5M NaOH solution was added in 50 μl droplets until a clear solution was formed. 0.1M HCl was added to the solution by stepwise addition of 50 μl followed by mixing using a vortex. pH values were estimated by transferring a spatula tip of hydrogel onto universal indicator paper.\nSelf-assembled scaffolds were prepared by first suspending the Fmoc-dipeptide in purified water. Upon increase of the pH by addition of concentrated NaOH (thus de-protonating the carboxylic acid group) to a value of >8, a clear solution was obtained. To this solution, concentrated hydrochloric acid was added drop wise until the pH of the solution became 7, at which point a clear, self-supporting gel was formed.\nTable 3 below identifies various peptide derivatives (incorporating an aromatic stacking ligand) and mixtures thereof that formed gels at a pH of 6-8 at the indicated concentrations: […]"}, "Human dermal fibroblasts": {"test_system": "Human dermal fibroblasts", "assay_type": "cell-based", "excerpt": "In order to coarsely test cell viability, a Live/Dead assay was chosen in which two reagents of EthD-1 and Calcine AM were involved. […] With the help of this staining and fluorescence microscope, living and dead cells could be easily visualized therefore viability inside the culture is measured.\nFor making Fmoc-Phe-Phe-OH peptide solution, 0.0107 gram of Fmoc-Phe-Phe-OH was weighed in a glass vial and sterilized for 30 minutes by an ultraviolet light with bottles of distilled water, filtered NaOH (Sodium Hydroxide, 0.5 M/L), filtered HCl (Hydrochloric Acid, 0.5 M/L), and relevant apparatus (spatulas, pipettes, Vortex). 2 mL of the sterile distilled water was then added into the glass vial of Fmoc-Phe-Phe-OH, and the mixture was vortexed for a few seconds to create a suspension. Afterwards, approximate 100 μL of NaOH was gradually pipetted into the suspension (20 μL each pipetting) and the mixture was vortexed after every addition of the alkaline. […] The basic peptide solution (pH around 10) was finally neutralized to pH 7 by dropwise addition of HCl and pH values were monitored by a pH meter with a micro-probe. […]"}}, "note": "Peptide text beside a SMILES is read from it. * marks the point of attachment. Fmoc = O=C(OCC1c2ccccc2-c2ccccc21)*"}
{"smiles": "O=C(N[C@@H](Cc1ccccc1)C(=O)N[C@@H](Cc1ccccc1)C(=O)O)OCC1c2ccccc2-c2ccccc21", "note": "[Entry 1, Fmoc-Phe-Phe-OH] (Fmoc-Phe-Phe-OH)", "values": [{"measurement": "Gel?", "setting": "[1]; Component 1 10 mM/L, pH 7", "value": "✓"}, {"measurement": "Concentration", "setting": "[1]; Properties of self-assembled Fmoc-dipeptides (Table 1), concentration range of gel", "value": "2900 to 30000", "unit": "µM"}, {"measurement": "pH", "setting": "[1]; Properties of self-assembled Fmoc-dipeptides (Table 1), pH range of gel", "value": "4-8"}, {"measurement": "pH", "setting": "[1]; pH at which the gel formed at the indicated concentrations (Table 3)", "value": 7}, {"measurement": "cell viability (live/dead staining)", "setting": "Human dermal fibroblasts", "value": "majority of cells were shown to be living"}, {"measurement": "cell spreading in the gel", "setting": "Human dermal fibroblasts; during the first 3 days, 3D culture", "value": "did not complete spreading"}]}
